In the NIST ThermoML archive (doi:10.1007/s10765-008-0482-1):
“And” between values parts separate entries of the source, which are not always exact repeats. Equal values may be shown once. ± gives the expanded uncertainty stated by the source.

Test: xn = mol fraction of the nth substance listed
Conditions: Fluid (supercritical or subcritical phases), Parallel plate method

CC [ethane] + O=C=O
Conditions | thermal conductivity
291.06 K, Amount density=2940 mol/m3, x2 = 0.5 | 0.0276 ± 0.0015 W/m/K
291.06 K, Amount density=6960 mol/m3, x2 = 0.5 | 0.099 ± 0.0025 W/m/K
291.07 K, Amount density=5650 mol/m3, x2 = 0.5 | 0.0554 ± 0.0021 W/m/K
291.07 K, Amount density=7530 mol/m3, x2 = 0.5 | 0.114 ± 0.005 W/m/K
291.08 K, Amount density=435 mol/m3, x2 = 0.5 | 0.0191 ± 0.0013 W/m/K
291.11 K, Amount density=6960 mol/m3, x2 = 0.5 | 0.104 ± 0.0026 W/m/K
291.17 K, Amount density=6960 mol/m3, x2 = 0.5 | 0.11 ± 0.0027 W/m/K
291.18 K, Amount density=6960 mol/m3, x2 = 0.5 | 0.108 ± 0.0027 W/m/K
291.2 K, Amount density=7530 mol/m3, x2 = 0.5 | 0.144 ± 0.0049 W/m/K
291.24 K, Amount density=7730 mol/m3, x2 = 0.5 | 0.151 ± 0.011 W/m/K
291.26 K, Amount density=7530 mol/m3, x2 = 0.5 | 0.159 ± 0.0056 W/m/K
291.29 K, Amount density=7530 mol/m3, x2 = 0.5 | 0.158 ± 0.0057 W/m/K
291.32 K, Amount density=7530 mol/m3, x2 = 0.5 | 0.21 ± 0.028 W/m/K
291.33 K, Amount density=7530 mol/m3, x2 = 0.5 | 0.206 ± 0.0085 W/m/K
291.34 K, Amount density=435 mol/m3, x2 = 0.5 | 0.0192 ± 0.0013 W/m/K
291.34 K, Amount density=2940 mol/m3, x2 = 0.5 | 0.0274 ± 0.0014 W/m/K
291.34 K, Amount density=6960 mol/m3, x2 = 0.5 | 0.11 ± 0.0027 W/m/K
291.34 K, Amount density=7730 mol/m3, x2 = 0.5 | 0.203 ± 0.0049 W/m/K
291.35 K, Amount density=5650 mol/m3, x2 = 0.5 | 0.0542 ± 0.0018 W/m/K
291.35 K, Amount density=6960 mol/m3, x2 = 0.5 | 0.111 ± 0.0027 W/m/K
291.35 K, Amount density=7530 mol/m3, x2 = 0.5 | 0.172 ± 0.0054 W/m/K
291.5 K, Amount density=435 mol/m3, x2 = 0.5 | 0.0192 ± 0.0013 W/m/K
291.55 K, Amount density=2940 mol/m3, x2 = 0.5 | 0.0274 ± 0.0014 W/m/K
291.55 K, Amount density=7730 mol/m3, x2 = 0.5 | 0.128 ± 0.0039 W/m/K
291.57 K, Amount density=5650 mol/m3, x2 = 0.5 | 0.0553 ± 0.0019 W/m/K
291.57 K, Amount density=7530 mol/m3, x2 = 0.5 | 0.139 ± 0.0034 W/m/K
292.05 K, Amount density=6960 mol/m3, x2 = 0.5 | 0.099 ± 0.0025 W/m/K and 0.0913 ± 0.0024 W/m/K
292.05 K, Amount density=7530 mol/m3, x2 = 0.5 | 0.106 ± 0.0027 W/m/K
292.05 K, Amount density=7730 mol/m3, x2 = 0.5 | 0.102 ± 0.0026 W/m/K
292.08 K, Amount density=435 mol/m3, x2 = 0.5 | 0.0192 ± 0.0013 W/m/K
292.09 K, Amount density=5650 mol/m3, x2 = 0.5 | 0.0546 ± 0.0018 W/m/K
292.11 K, Amount density=2940 mol/m3, x2 = 0.5 | 0.0276 ± 0.0014 W/m/K
292.64 K, Amount density=6630 mol/m3, x2 = 0.74 | 0.0593 ± 0.0019 W/m/K
293.08 K, Amount density=6710 mol/m3, x2 = 0.26 | 0.0687 ± 0.002 W/m/K
293.08 K, Amount density=7530 mol/m3, x2 = 0.5 | 0.0833 ± 0.0023 W/m/K
293.09 K, Amount density=6960 mol/m3, x2 = 0.5 | 0.0861 ± 0.0023 W/m/K
293.11 K, Amount density=7730 mol/m3, x2 = 0.5 | 0.0798 ± 0.0022 W/m/K
293.13 K, Amount density=2940 mol/m3, x2 = 0.5 | 0.0277 ± 0.0014 W/m/K
293.14 K, Amount density=5650 mol/m3, x2 = 0.5 | 0.052 ± 0.0018 W/m/K
293.15 K, Amount density=435 mol/m3, x2 = 0.5 | 0.0193 ± 0.0013 W/m/K
293.15 K, Amount density=877 mol/m3, x2 = 0.26 | 0.0213 ± 0.0013 W/m/K
293.15 K, Amount density=6630 mol/m3, x2 = 0.74 | 0.0578 ± 0.0019 W/m/K
293.15 K, Amount density=9120 mol/m3, x2 = 0.74 | 0.213 ± 0.014 W/m/K
293.17 K, Amount density=9120 mol/m3, x2 = 0.74 | 0.16 ± 0.0036 W/m/K
293.24 K, Amount density=9120 mol/m3, x2 = 0.74 | 0.156 ± 0.009 W/m/K
293.34 K, Amount density=9120 mol/m3, x2 = 0.74 | 0.135 ± 0.004 W/m/K
293.53 K, Amount density=9120 mol/m3, x2 = 0.74 | 0.116 ± 0.0029 W/m/K
293.64 K, Amount density=3090 mol/m3, x2 = 0.26 | 0.0314 ± 0.0015 W/m/K
293.95 K, Amount density=9120 mol/m3, x2 = 0.74 | 0.101 ± 0.0027 W/m/K
294.32 K, Amount density=9120 mol/m3, x2 = 0.74 | 0.0842 ± 0.0023 W/m/K
294.72 K, Amount density=9120 mol/m3, x2 = 0.74 | 0.0824 ± 0.0022 W/m/K
294.96 K, Amount density=6710 mol/m3, x2 = 0.26 | 0.075 ± 0.0021 W/m/K
295.61 K, Amount density=7450 mol/m3, x2 = 0.25 | 0.0795 ± 0.0022 W/m/K
